Literature values in patent US10238615B2 (Bracco S.P.A., priority 2011, dated 2019).

N[C@@H](Cc1cc(I)c(Oc2ccc(O)c(I)c2)c(I)c1)C(=O)O [Example T3, 3,5,3′-triiodothyronine]
Plasma level of total T3 obtained by standard therapy (20 μg T3): 196.6 ng/dL | Time of peak level in serum (synthetic T3 once administered): 2 to 3 h | Time to complete clearance from blood (synthetic T3 once administered): 12 to 24 h | Serum levels of thyreotropic hormone (TSH) (euthyroid rats): significant reduction
